Data: ChEMBL document CHEMBL5365408, “Small molecule inhibitors of PCSK9. SAR investigations of head and amine groups” (Bioorg Med Chem Lett, 2023)
Blank lines part the entries; values can stand above or below the molecule they belong to.

Columns and labels:
[1] = Cytotoxicity against rat Bone marrow cell assessed as inhibition of cell growth with puromycin as high potent effect standard by celltiter-glo assay; format: toxicity, cell-based; conditions: rat bone marrow cells
[2] = Selectivity index, ratio of IC50 for cytotoxicity against rat Bone marrow cell assessed as inhibition of cell growth by celltiter-glo assay to IC50 for inhibition of full length human PCSK9 expressed in human Huh-7 cells by ELISA analysis
[3] = target: T1, Proprotein convertase subtilisin/kexin type 9 (Homo sapiens, UniProt Q8NBP7); assay: Inhibition of full length human PCSK9 expressed in human Huh-7 cells by ELISA analysis; format: cell-based
[4] = target: T1, Proprotein convertase subtilisin/kexin type 9; assay: Inhibition of full length human PCSK9 expressed in human Huh-7 cells at 20 uM by ELISA analysis relative to control; format: cell-based
[5] = Cytotoxicity against rat Bone marrow cell assessed as inhibition of cell growth with (R)-4-(3H-[1,2,3]triazolo[4,5-b]pyridin-3-yl)-N-(3-chloropyridin-2-yl)-N-(piperidin-3-yl) benzamide as high potent effect standard by celltiter-glo assay; format: toxicity, cell-based; conditions: rat, rat bone marrow cells
[6] = Unbound fraction in human plasma by equilibrium dialysis analysis; format: ADME, cell-free
[7] = Apparent permeability across apical to basolateral side in MDCK-MDR1 cells; format: ADME, cell-based, Canis lupus familiaris; conditions: dog, read-out: permeability
[8] = Apparent permeability of compound in MDCK-II cells; format: ADME, cell-based, Canis lupus familiaris; conditions: dog, read-out: permeability
[9] = Toxicity in rat assessed as reduction in T cells in peripheral blood at 150 mg/kg, po measured for 14 days; format: organism-based, T-cell; conditions: in vivo, 336 h, time 14 day
CYP1A2 = target: T2, CYP1A2 (Homo sapiens, UniProt P05177); assay: Inhibition of CYP1A2 (unknown origin) at 3 uM relative to control; format: ADME
T2 sequence (P05177 whole entry): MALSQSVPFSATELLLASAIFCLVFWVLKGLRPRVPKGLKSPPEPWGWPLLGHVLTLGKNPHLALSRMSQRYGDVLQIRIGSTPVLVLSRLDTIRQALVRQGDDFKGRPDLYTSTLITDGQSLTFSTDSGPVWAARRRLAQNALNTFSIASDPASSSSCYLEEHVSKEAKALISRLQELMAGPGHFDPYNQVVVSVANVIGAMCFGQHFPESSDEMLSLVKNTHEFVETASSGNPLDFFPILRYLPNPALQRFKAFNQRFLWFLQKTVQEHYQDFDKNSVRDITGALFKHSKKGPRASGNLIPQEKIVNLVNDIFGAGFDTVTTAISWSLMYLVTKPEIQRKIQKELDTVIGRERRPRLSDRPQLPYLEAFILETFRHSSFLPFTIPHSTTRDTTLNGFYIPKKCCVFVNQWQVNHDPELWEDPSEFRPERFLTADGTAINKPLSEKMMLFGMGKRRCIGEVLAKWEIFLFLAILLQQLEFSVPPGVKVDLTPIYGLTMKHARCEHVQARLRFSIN

[10] = target: Voltage-gated inwardly rectifying potassium channel KCNH2 (Homo sapiens, UniProt Q12809); assay: Inhibition of hERG by patch clamp assay; format: toxicity
[11] = Cytotoxicity against human CD34-positive cell assessed as reduction in cell growth by celltiter-glo assay; format: toxicity, cell-based; conditions: human CD34-positive cells
[12] = Apparent permeability across basolateral to apical side in MDCK-MDR1 cells; format: ADME, cell-based, Canis lupus familiaris; conditions: dog, read-out: permeability
[13] = Unbound fraction in mouse plasma by equilibrium dialysis analysis; format: ADME, cell-free
CYP2D6 = CYP2D6 (Homo sapiens, UniProt P10635); assay: Inhibition of CYP2D6 (unknown origin) at 3 uM relative to control; format: ADME
[14] = Cmax in Sprague-Dawley rat at 1 mg/kg, iv; format: ADME, organism-based; design: dose 1 mg/kg, route iv; conditions: in vivo
CYP3A4 = CYP3A4 (Homo sapiens, UniProt P08684); assay: Inhibition of CYP3A4 (unknown origin) at 3 uM relative to control; format: ADME
[15] = Unbound fraction in rat plasma by equilibrium dialysis analysis; format: ADME, cell-free
[16] = Toxicity in rat assessed as mortality at 25 to 400 mg/kg, po measured for 14 days; format: organism-based; conditions: in vivo, 336 h, dose 25-400 mg/kg, time 14 day
[17] = Oral bioavailability in Sprague-Dawley rat at 5 mg/kg; format: ADME, organism-based; conditions: in vivo
CYP2C9 = CYP2C9 (Homo sapiens, UniProt P11712); assay: Inhibition of CYP2C9 (unknown origin) at 3 uM relative to control; format: ADME
[18] = Cmax in rat at 25 mg/kg, po; format: ADME, organism-based; design: dose 25 mg/kg, route po; conditions: in vivo
Mus musculus = assay: Downregulation of PCSK9 level in po dosed mouse; format: functional, organism-based; conditions: dose 10-300 mg/kg
[19] = Toxicity in rat assessed as reduction in T cytotoxic cells in peripheral blood at 150 mg/kg, po measured for 14 days; format: organism-based, T-cell; conditions: in vivo, 336 h, time 14 day
[20] = Clearance in Sprague-Dawley rat at 1 mg/kg, iv; format: ADME, organism-based; conditions: in vivo
[21] = Lipophilicity, log D of the compound by shake flask method; format: physicochemical; conditions: octanol/water
[22] = Half life in Sprague-Dawley rat at 1 mg/kg, iv; format: ADME, organism-based; conditions: in vivo
[23] = Toxicity in rat assessed as reduction in B cells in peripheral blood at 150 mg/kg, po measured for 14 days; format: organism-based; conditions: in vivo, 336 h, time 14 day
[24] = Toxicity in rat assessed as reduction in T helper cells in peripheral blood at 150 mg/kg, po measured for 14 days; format: organism-based, T-cell; conditions: in vivo, 336 h, time 14 day
[25] = Volume of distribution at steady state in Sprague-Dawley rat at 1 mg/kg, iv; format: ADME, organism-based; conditions: in vivo, read-out: Vdss

T1 sequence (Q8NBP7 31-152 limits assumed): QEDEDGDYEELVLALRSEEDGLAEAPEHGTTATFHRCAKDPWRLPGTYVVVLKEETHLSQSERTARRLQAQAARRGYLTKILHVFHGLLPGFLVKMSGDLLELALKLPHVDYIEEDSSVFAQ
T1 sequence (Q8NBP7 153-692 limits assumed): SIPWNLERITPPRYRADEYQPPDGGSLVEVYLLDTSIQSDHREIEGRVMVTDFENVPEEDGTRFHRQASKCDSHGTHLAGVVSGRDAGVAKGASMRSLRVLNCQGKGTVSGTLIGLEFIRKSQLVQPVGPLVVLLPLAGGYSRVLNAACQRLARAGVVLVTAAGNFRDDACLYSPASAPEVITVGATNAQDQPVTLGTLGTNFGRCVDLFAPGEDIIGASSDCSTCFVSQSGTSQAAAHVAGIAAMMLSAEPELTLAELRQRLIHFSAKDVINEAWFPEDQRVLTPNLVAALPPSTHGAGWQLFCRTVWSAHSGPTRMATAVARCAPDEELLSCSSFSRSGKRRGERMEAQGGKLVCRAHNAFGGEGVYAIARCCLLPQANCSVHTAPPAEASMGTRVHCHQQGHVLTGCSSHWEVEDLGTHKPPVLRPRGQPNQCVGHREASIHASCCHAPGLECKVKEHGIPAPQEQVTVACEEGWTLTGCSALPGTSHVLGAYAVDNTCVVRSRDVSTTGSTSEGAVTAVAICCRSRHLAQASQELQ
Chain of CYP3A4 (P08684 whole entry): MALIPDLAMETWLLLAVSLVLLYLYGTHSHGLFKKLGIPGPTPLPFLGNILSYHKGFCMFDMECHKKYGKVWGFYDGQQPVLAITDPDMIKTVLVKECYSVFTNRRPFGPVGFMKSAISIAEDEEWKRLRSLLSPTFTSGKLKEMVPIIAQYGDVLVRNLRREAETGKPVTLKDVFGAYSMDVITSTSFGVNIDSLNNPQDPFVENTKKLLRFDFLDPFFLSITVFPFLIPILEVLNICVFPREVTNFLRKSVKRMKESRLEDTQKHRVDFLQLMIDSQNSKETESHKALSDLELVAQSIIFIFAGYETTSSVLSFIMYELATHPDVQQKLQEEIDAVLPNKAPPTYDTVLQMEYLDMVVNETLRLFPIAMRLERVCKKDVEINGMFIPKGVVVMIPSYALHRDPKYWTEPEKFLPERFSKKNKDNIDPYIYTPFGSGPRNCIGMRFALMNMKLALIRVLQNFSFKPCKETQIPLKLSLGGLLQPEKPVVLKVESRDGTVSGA
Chain of CYP2C9 (P11712 whole entry): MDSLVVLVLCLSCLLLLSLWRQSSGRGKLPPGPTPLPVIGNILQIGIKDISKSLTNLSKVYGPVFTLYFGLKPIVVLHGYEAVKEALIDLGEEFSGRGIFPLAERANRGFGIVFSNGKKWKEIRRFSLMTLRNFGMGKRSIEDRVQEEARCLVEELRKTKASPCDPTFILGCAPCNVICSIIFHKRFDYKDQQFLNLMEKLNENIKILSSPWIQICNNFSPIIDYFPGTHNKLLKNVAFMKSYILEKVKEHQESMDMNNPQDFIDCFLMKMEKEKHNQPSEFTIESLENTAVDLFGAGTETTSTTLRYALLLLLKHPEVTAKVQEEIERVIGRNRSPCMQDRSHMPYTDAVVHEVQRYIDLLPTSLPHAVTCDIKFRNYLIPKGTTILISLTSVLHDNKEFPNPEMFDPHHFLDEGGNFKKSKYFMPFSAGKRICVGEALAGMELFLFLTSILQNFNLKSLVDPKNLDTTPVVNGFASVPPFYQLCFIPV
Chain of Voltage-gated inwardly rectifying potassium channel KCNH2 (Q12809 whole entry): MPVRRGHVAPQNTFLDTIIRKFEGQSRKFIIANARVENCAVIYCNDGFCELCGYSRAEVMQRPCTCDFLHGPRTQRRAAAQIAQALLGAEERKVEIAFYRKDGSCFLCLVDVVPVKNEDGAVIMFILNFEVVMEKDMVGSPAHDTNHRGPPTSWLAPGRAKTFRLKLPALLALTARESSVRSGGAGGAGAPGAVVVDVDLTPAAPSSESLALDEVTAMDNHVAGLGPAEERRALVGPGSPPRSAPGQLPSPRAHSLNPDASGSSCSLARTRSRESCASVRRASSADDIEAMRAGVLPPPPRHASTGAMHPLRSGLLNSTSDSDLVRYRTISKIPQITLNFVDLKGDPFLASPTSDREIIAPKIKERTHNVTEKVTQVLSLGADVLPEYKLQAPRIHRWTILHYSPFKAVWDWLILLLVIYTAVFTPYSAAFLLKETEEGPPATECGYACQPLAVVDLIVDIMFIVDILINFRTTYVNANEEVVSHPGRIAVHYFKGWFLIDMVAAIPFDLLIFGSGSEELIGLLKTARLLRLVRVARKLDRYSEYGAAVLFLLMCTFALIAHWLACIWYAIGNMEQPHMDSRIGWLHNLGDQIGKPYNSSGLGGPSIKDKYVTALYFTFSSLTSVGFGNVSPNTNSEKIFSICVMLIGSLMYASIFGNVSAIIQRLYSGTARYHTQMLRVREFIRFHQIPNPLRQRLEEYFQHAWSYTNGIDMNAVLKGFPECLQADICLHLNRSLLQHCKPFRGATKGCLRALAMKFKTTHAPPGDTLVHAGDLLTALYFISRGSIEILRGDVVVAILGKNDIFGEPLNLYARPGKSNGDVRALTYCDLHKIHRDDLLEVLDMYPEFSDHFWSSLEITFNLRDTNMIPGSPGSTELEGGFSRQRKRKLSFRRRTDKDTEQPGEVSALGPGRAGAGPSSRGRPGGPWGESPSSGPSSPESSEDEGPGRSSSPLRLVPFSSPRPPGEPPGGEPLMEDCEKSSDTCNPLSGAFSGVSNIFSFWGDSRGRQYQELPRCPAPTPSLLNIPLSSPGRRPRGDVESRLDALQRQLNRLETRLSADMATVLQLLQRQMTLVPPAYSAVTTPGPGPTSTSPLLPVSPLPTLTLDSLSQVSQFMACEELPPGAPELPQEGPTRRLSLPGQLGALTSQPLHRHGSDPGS
Chain of CYP2D6 (P10635 whole entry): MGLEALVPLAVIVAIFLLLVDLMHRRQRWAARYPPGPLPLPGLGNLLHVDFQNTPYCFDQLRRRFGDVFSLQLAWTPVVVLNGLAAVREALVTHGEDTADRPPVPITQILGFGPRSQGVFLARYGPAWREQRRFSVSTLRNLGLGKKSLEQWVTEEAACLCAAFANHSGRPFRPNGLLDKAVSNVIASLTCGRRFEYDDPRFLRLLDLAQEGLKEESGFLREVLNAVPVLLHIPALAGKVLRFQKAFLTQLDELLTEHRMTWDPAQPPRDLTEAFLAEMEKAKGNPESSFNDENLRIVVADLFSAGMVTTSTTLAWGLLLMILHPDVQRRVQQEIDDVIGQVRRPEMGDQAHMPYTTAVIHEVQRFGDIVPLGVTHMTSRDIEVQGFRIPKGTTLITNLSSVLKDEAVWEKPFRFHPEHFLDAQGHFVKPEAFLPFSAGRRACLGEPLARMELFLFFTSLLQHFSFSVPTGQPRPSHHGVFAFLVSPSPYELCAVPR

Compound: COc1cccnc1N(C(=O)c1ccc(-c2cnn3cccnc23)cc1)[C@@H]1CCCNC1
IC50 [3]: 16.9 µM

Compound: O=C(c1ccc(-c2cnn3cccnc23)cc1)N(c1ncccc1F)[C@@H]1CCCNC1
IC50 [3]: > 20 µM

Compound: CCc1cccnc1N(C(=O)c1ccc(-c2cnn3cccnc23)cc1)[C@@H]1CCCNC1
IC50 [3]: 3.31 µM

Compound: C[C@@H]1CNC[C@H](N(C(=O)c2ccc(-n3nnc4cccnc43)cc2)c2ncccc2Cl)C1 (racemic)
inhibition [4]: 38%

Compound: CNC(=O)OC[C@H]1CNC[C@H](N(C(=O)c2ccc(-n3nnc4cccnc43)cc2)c2ncccc2Cl)C1 (racemic)
IC50 [3]: > 20 µM

Compound: O=C(c1ccc(-n2nnc3cccnc32)cc1)N(c1ncccc1Cl)[C@H]1CNC[C@H](CO)C1 (racemic)
IC50 [5]: 9.9 µM | IC50 [3]: 8.9 µM

Compound: O=C(c1ccc(-n2nnc3cccnc32)cc1)N(c1nccn1C1CC1)[C@@H]1CCCNC1
IC50 [1]: 1.24 µM | Ratio IC50 [2]: 0.18 | IC50 [3]: 6.84 µM

Compound: Cc1cccnc1N(C(=O)c1ccc(-c2cnn3cccnc23)cc1)[C@@H]1CCCNC1
Fu [6]: 0.54% | Papp A→B [7]: 0.4 ×10⁻⁶ cm/s | Papp [8]: 7 ×10⁻⁶ cm/s | Activity [9]: Non-Toxic | IC50 [1]: 16.8 µM | inhibition at 3 µM (CYP1A2): < 5% | IC50 [10]: 56.5 µM | IC50 [11]: 13.6 µM | Papp B→A [12]: 15.7 ×10⁻⁶ cm/s | Fu [13]: 0.37% | inhibition at 3 µM (CYP2D6): < 5% | Cmax [14]: 121 ng/mL | inhibition at 3 µM (CYP3A4): < 5% | Fu [15]: 0.32% | Activity [16]: Non-Toxic | bioavailability [17]: 20% | inhibition at 3 µM (CYP2C9): < 5% | Cmax [18]: 255 ng/mL | Activity (Mus musculus): Dose-Dependent Effect | Ratio IC50 [2]: 7.47 | IC50 [5]: 18.2 µM | Activity [19]: Non-Toxic | clearance [20]: 43.6 mL/min/kg | logD [21]: 0.6 | IC50 [3]: 2.25 µM | half-life [22]: 1.7 h | Activity [23]: Non-Toxic | Activity [24]: Non-Toxic | Vd [25]: 3 L/kg

Compound: O=C(c1ccc(-n2nnc3cccnc32)cc1)N(c1ncccc1Cl)[C@@H]1CCCNC1
IC50 [1]: 1.15 µM | Cmax [18]: 312 ng/mL | IC50 [5]: 3.23 µM

Compound: C[C@H]1CNC[C@H](N(C(=O)c2ccc(-n3nnc4cccnc43)cc2)c2ncccc2Cl)C1 (racemic)
inhibition [4]: 43%

Compound: O=C(c1ccc(-c2cnn3cccnc23)cc1)N(c1ncccc1C(F)(F)F)[C@@H]1CCCNC1
Fu [6]: 0.41% | Papp A→B [7]: 0.7 ×10⁻⁶ cm/s | Papp [8]: 7 ×10⁻⁶ cm/s | IC50 [1]: > 20 µM | inhibition at 3 µM (CYP1A2): < 40% | IC50 [10]: 57.6 µM | IC50 [11]: 35.9 µM | Papp B→A [12]: 26.4 ×10⁻⁶ cm/s | Fu [13]: 0.13% | inhibition at 3 µM (CYP2D6): < 40% | inhibition at 3 µM (CYP3A4): < 40% | inhibition at 3 µM (CYP2C9): < 40% | Ratio IC50 [2]: 7.6 | IC50 [5]: 21.2 µM | logD [21]: 1.1 | IC50 [3]: 2.79 µM

Compound: NC(=O)NC[C@H]1CNC[C@H](N(C(=O)c2ccc(-n3nnc4cccnc43)cc2)c2ncccc2Cl)C1 (racemic)
IC50 [3]: > 20 µM

More lines, main results first:

IC50 [3]: 0.62 µM
Compound: Cn1ncc2ccnc(N(C(=O)c3ccc(-n4nnc5cccnc54)cc3)[C@@H]3CCCNC3)c21
IC50 [1]: 0.18 µM | Ratio IC50 [2]: 0.29

IC50 [3]: 1.8 µM
Compound: O=C(c1ccc(-c2cnn3cccnc23)cc1)N(c1ncccc1-c1ccccc1)[C@@H]1CCCNC1
IC50 [1]: 4.39 µM | Ratio IC50 [2]: 2.43

IC50 [3]: 1.84 µM
Compound: Cc1nccnc1N(C(=O)c1ccc(-n2nnc3cccnc32)cc1)[C@@H]1CCCNC1
IC50 [1]: 2.36 µM | Ratio IC50 [2]: 1.28 | IC50 [5]: 10.9 µM

IC50 [3]: 1.09 µM
Compound: Cc1ccnc(N(C(=O)c2ccc(-n3nnc4cccnc43)cc2)[C@@H]2CCCNC2)c1Cl
IC50 [1]: 0.38 µM | Ratio IC50 [2]: 0.35

IC50 [3]: 1.97 µM
Compound: Cc1cccnc1N(C(=O)c1ccc(-n2nnc3cccnc32)cc1)[C@@H]1CCCNC1
IC50 [1]: 0.99 µM | Ratio IC50 [2]: 0.5

IC50 [3]: 0.58 µM
Compound: Cn1ccc2ccnc(N(C(=O)c3ccc(-n4nnc5cccnc54)cc3)[C@@H]3CCCNC3)c21
IC50 [1]: 0.04 µM | Ratio IC50 [2]: 0.07
